Measurements as given in patent US4397858A, “Treatment of rheumatism and arteriosclerosis with n-halogenophenyl-benzisothiazoles” (A. Nattermann & Cie GmbH, priority 1980, dated 1983).

How the values were obtained:
rats [1] = assay: Rat paw oedema test (HILLEBRECHT), carragenin; assay type: in vivo; conditions: 3 hours, relative to control group
Method: Determination of antiphlogistic activity by HILLEBRECHT's rat paw oedema test (J. HILLEBRECHT, Arzeim. Forsch. 1954, Vol. 4, page 607). An oedema was produced in one of the rear paws of rats weighing from 120 g to 150 g by the subplantar injection of carragenin (0.5% in a 0.9% NaCl-solution) in a quantity of 0.1 ml of solution per paw. After administration of the test substance, which generally should not exceed a volume of 10 ml per kg of body weight, the volume of the paw is determined in an overflow. After 3 hours, the final value is determined. For each dose, the test is carried out with 10 test animals and 10 control animals of one sex and repeated with the same number of animals of the other sex. For the purposes of evaluation, inhibition of the oedema is expressed as a percentage on relation to the control group.

rats [2] = assay: Granuloma test (Cotton pellet test) according to R. MEIER; assay type: in vivo; conditions: rat
Source text: Granuloma test (Cotton pellet test) according to R. MEIER et al. Experientia 6, 469 (1950)
In this test, cottonwool pellets impregnated with croton oil were implanted subcutaneously in the test animals (rats) to induce the formation of granulomas in the connective tissue. After the animals had been killed, the granulomas were excised and weighed moist or dry. The anti-proliferative effect of an antiphlogistic is reflected in light weights of the granulomas by comparison with untreated controls.

Wistar rats = assay: Adjuvant arthritis (C. M. PEARSON), Freund's adjuvant; assay type: in vivo, Wistar rat; conditions: rat
Method: 3. Adjuvant arthritis (C. M. PEARSON, proc.Soc.exp.Biol. 91, 95-101 (1956)
10 Wistar rats weighing from 120 g to 150 g are used per dose. The same number of animals is used for control purposes. An arthritis is induced by the administration of 0.5 ml of Freund's adjuvant by subplantar injection. The test lasts 17 days. At the beginning of the test, the paw volume of all four extremities is determined and used as the starting value. […] For evaluation purposes, the difference between the starting volume and final volume of the paws both of the test group and of the control group is calculated and inhibition expressed as a percentage.

[3] = tested on: stomach mucosa of Wistar rats; assay: Ulcer test (ulcer-inducing effect in rats); assay type: in vivo, Wistar rat; conditions: rat
Method: J. Toxicol. […] A bleeding stomach ulcer is induced by oral administration of the active principle. After 3.5 hours, the animals are killed, their stomachs removed, cut open along the major curvature and stretched across a Styropor plate. The frequency and extent of average ulcer formation in the test and control groups is determined.

[4] = Toxicity, mice, oral (lethality); conditions: mouse, in vivo
[5] = 1.0 mg/kg p.o. (printed 1 for Indometacin)
[6] = 1 mg/kg p.o. (1.0 for Indometacin), 7th day p.i.
[7] = 1 mg/kg p.o. (1.0 for Indometacin), 14th day p.i.
[8] = 1 mg/kg p.o. (1.0 for Indometacin), 17th day p.i.

Structure (SMILES): O=c1c2ccccc2sn1-c1ccc(Cl)cc1 [2-(4-chlorophenyl)-1,2-benzisothiazol-3(2H)-one]
- Oedema inhibition (rats [1]; 0.01 mg/kg p.o.): -13%
- Oedema inhibition (rats [1]; 0.1 mg/kg p.o.): -22%
- Oedema inhibition (rats [1]; 1.0 mg/kg p.o.): -36%
- Reduction in weight of the granulomas (rats [2]; 0.1 mg/kg p.o.): -26%
- Reduction in weight of the granulomas (rats [2]; [5]): -43%
- Reduction in weight of the granulomas (rats [2]; 10 mg/kg p.o.): -44%
- Inhibition (adjuvant arthritis, paw volume) (Wistar rats; [6]): -27%
- Inhibition (adjuvant arthritis, paw volume) (Wistar rats; [7]): -44%
- Inhibition (adjuvant arthritis, paw volume) (Wistar rats; [8]): -45%
- Inhibition (adjuvant arthritis, paw volume) (Wistar rats; 3.2 mg/kg p.o., 7th day p.i.): -46%
- Inhibition (adjuvant arthritis, paw volume) (Wistar rats; 3.2 mg/kg p.o., 14th day p.i.): -51%
- Inhibition (adjuvant arthritis, paw volume) (Wistar rats; 3.2 mg/kg p.o., 17th day p.i.): -56%
- Ulcer-inducing effect ([3]; 1 mg/kg p.o., 3.5 hours): 0
- Ulcer-inducing effect ([3]; 10 mg/kg p.o., 3.5 hours): 0
- Ulcer-inducing effect ([3]; 100 mg/kg p.o., 3.5 hours): 0
- mortality ([4]; 3 160 mg/kg p.o.): 0%

Structure (SMILES): COc1ccc2c(c1)c(CC(=O)O)c(C)n2C(=O)c1ccc(Cl)cc1 [Indometacin, 1-(p-chlorobenzoyl)-5-methoxy-2-methyl-3-indole acetic acid, reference compound]
- Oedema inhibition (rats [1]; 3.8 mg/kg p.o.): -26%
- Oedema inhibition (rats [1]; 5.6 mg/kg p.o.): -45%
- Reduction in weight of the granulomas (rats [2]; [5]): -21%
- Reduction in weight of the granulomas (rats [2]; 3.2 mg/kg p.o.): -7%
- Reduction in weight of the granulomas (rats [2]; 5.6 mg/kg p.o.): -6%
- Inhibition (adjuvant arthritis, paw volume) (Wistar rats; 0.32 mg/kg p.o., 7th day p.i.): -20%
- Inhibition (adjuvant arthritis, paw volume) (Wistar rats; 0.32 mg/kg p.o., 14th day p.i.): -26%
- Inhibition (adjuvant arthritis, paw volume) (Wistar rats; 0.32 mg/kg p.o., 17th day p.i.): -33%
- Inhibition (adjuvant arthritis, paw volume) (Wistar rats; [6]): -50%
- Inhibition (adjuvant arthritis, paw volume) (Wistar rats; [7]): -40%
- Inhibition (adjuvant arthritis, paw volume) (Wistar rats; [8]): -40%
- Ulcer-inducing effect ([3]; in vivo, po, 3.2 mg/kg): ++
- Ulcer-inducing effect ([3]; in vivo, po, 5.6 mg/kg): +++
- Ulcer-inducing effect ([3]; in vivo, po, 7.5 mg/kg): +++
- mortality ([4]; 38 mg/kg p.o.): 50%
